What was measured:
BDNF = assay: qPCR of BDNF transcripts in hippocampus; assay type: in vivo, mouse; details: mRNA, offspring of poly I:C treated dams treated at 8 weeks with Kp-10 or PBS
Procedure: RNA purification, cDNA synthesis, reverse transcription PCR, and real-time quantitative PCR analysis. For RNA expression analysis, cells from whole hippocampi were extracted with TRI Reagent (MRC, Cincinnati, Ohio), and total cellular RNA was purified from the lysates using the RNeasy kit (Qiagen, Hilden, Germany). RNA (1 μg) was converted to cDNA using SuperScript II (Promega, Madison, Wis.). The amplification cycle was 95° C. for 5 s, 60° C. for 20 s, and 72° C. for 15 s.
The following primers were used: […]
To understand what is the mechanism behind the prophylactic treatment of Kp-10 we examined the expression of total brain-derived neurotrophic factor (BDNF) and its exon transcripts 1-4 according to Zajac et al. (2010). […] Recently, association between a BDNF variant and childhood-onset mood disorder was established (Strauss et al., 2005). Therefore, we studied mRNA expression of a few BDNF transcripts in the hippocampus of offspring of PBS treated dams (n=5) compared to offspring of poly I:C treated dams, which were treated at 8 weeks with either Kp-10 (n=6) or PBS (n=6) (Table 3). […] Treatment with Kp-10 at 8 weeks of age induced an increase in the expression of BDNF1 transcript to the normal level (Table 3(ii)). […] In addition, no significant difference was found between the groups in the expression of BDNF transcripts 3 and 4 (Table 3(iv and v)). […] The involvement of BDNF in schizophrenia and its effect on PPI levels are still a debate. Our observations of changes in expression of selective forms of BDNF might explain this apparent dichotomy.

GPR54 = GPR54 (Mus musculus, UniProt Q91V45); details: in vivo; cited from earlier work
C57B1/6 mice = assay: PPI in MK-801 pharmacological model of schizophrenia; assay type: in vivo, mouse; details: Kp-10 i.p. 100 μl of 100 μM 15 min prior to MK-801 (0.1 mg/kg)
Procedure: (§1) Prepulse Inhibition (PPI). PPI testing was performed within startle chambers purchased from Med Associates Inc (Med Associates, St. Albans, Vt., USA). PPI was analyzed as described previously (Kipnis et al., 2004). Briefly, during a period of acclimation, a 65-dB background noise was applied for 5-min, and continued throughout the test session. All sessions for testing of PPI consisted of startle trials (pulse alone, 40-ms, 120-dB), prepulse trials (prepulse 20-ms, 69, 73, 78, or 81 dB followed by a (100-ms delay) pulse), and no-stimulus trials. All sessions were presented in pseudo-random order. The average time between trials was 15 s (range 12-30 s). PPI was calculated as: % PPI=100−{[(startle response for prepulse+pulse)/(startle response for pulse-alone)]×100}. In all the experiments, there were no significant differences between groups in trials of startle reactivity to pulse alone, and in no-stimulation trials. Data from no-stimulation trials are not included in the results because the values obtained were negligible relative to values from trials containing startle stimuli. Reduced PPI is associated with schizophrenia-related behavior. […]
To further establish the antipsychotic effect of Kp-10, we evaluated its ability to overcome psychotic symptoms induced by the psycho-mimetic agent, MK-801 (N-methyl-D-aspartate (NMDA) antagonist), which induces neurotransmitter imbalance. […]

naive mice = assay: Tail suspension test; assay type: in vivo, mouse; details: 100 μl of 100 μM, vs PBS
Procedure: Tail suspension test. The tail suspension apparatus was made of horizontal metal rod supported by a stand. Each mouse was suspended from its tail using adhesive tape, suspending each mouse individually. The immobility time was measured during a 6 min observation period, latency to first immobility and total immobility was calculated (FIG. 10A).
The results we presented above using the PPI paradigm only relate to the psychotic symptoms of schizophrenia. However, schizophrenia patients suffer from cognitive and negative symptoms as well (i.e depression). […] To address whether Kp-10 has an antidepressant potency we studied its effect in the tail suspension test, an established method for screening antidepressant-like activity in mice (Steru et al., 1985; Cryan et al., 2005). Naïve mice were treated with Kp-10 (SEQ ID NO:3; 100 μl of 100 μM) or PBS and were subjected to the tail suspension test, in which the mouse is suspended by the tail from a lever, and the movements of the animal are recorded (FIG. 10A). The latency to the first immobility was longer and the duration of the total immobility was shorter in the Kp-10 treated mice compared to PBS treated mice (FIGS. 10B-10C).

SCID mice = assay: Prepulse inhibition (PPI) in SCID mice; assay type: in vivo, mouse; details: adult (12 week old) SCID mice, i.p. 100 μl of 100 μM, 30 minutes prior to PPI testing, vs PBS
Procedure: as §1, with “trials.” for “trials. Data from no-stimulation trials are not included in the results because the values obtained were negligible relative to values from trials containing startle stimuli. Reduced PPI is associated with schizophrenia-related behavior.”
To confirm this possibility we examined whether injection of kisspeptin can restore the abnormal PPI in SCID mice to the normal level in wild-type mice. We analyzed the PPI in adult (12 week old) wild-type mice and, in SCID mice that were injected IP with 100 μl of 100 μM Kp-10 (SEQ ID NO:3), 30 minutes prior to PPI testing. […]

naive C57B1/6 mice = assay: PPI in naive C57B1/6 mice; assay type: in vivo, mouse
Procedure: Prepulse Inhibition (PPI). PPI testing was performed within startle chambers purchased from Med Associates Inc (Med Associates, St. Albans, Vt., USA). […] Briefly, during a period of acclimation, a 65-dB background noise was applied for 5-min, and continued throughout the test session. All sessions for testing of PPI consisted of startle trials (pulse alone, 40-ms, 120-dB), prepulse trials (prepulse 20-ms, 69, 73, 78, or 81 dB followed by a (100-ms delay) pulse), and no-stimulus trials. All sessions were presented in pseudo-random order. The average time between trials was 15 s (range 12-30 s). PPI was calculated as: % PPI=100−{[(startle response for prepulse+pulse)/(startle response for pulse-alone)]×100}. […] Data from no-stimulation trials are not included in the results because the values obtained were negligible relative to values from trials containing startle stimuli.
Kisspeptin treatment. Mice were injected i.p with 100 μl of 1/10/100 μM Kp-10 peptide (SEQ ID NO:3) (synthesized at the Weizmann Institute of Science, or Sigma-Aldrich, Israel) dissolved in PBS, 30 minutes before the PPI analysis.
Neurotensin receptor antagonist SR142948 (TOCRIS COOKSON LTD) was used at 100 μg/kg 60 min before the PPI analysis.
GnRH receptor antagonist Cetrorelix Acetate (Cetrotide™, Anaspec Inc. Fremont, Calif.). Control mice were administered the same volume of PBS.
To examine whether Kp-10 can elevate PPI in naïve mice in a dose dependent manner, we analyzed PPI in C57B1/6 mice that were injected i.p with 100 μl of 1/10/100 μM Kp-10 (SEQ ID NO:3).

Chain of GPR54 (Q91V45 whole entry): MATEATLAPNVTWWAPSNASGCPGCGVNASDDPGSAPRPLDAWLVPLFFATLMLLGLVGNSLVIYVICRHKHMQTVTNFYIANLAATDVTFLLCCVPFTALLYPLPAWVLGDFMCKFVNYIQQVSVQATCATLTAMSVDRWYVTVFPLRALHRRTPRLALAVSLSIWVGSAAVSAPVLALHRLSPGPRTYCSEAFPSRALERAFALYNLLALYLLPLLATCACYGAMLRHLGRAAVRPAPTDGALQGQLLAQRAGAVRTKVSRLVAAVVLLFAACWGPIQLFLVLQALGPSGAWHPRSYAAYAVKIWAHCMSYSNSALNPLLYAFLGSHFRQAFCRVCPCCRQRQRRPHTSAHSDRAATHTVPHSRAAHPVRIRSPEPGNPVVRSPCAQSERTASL

Question: What does the source list for YNWNSFGLRF—NH2 [Kp-10]?
Answer: Expression of BDNF1 transcript (BDNF): *2.2 ± 0.5; Expression of BDNF2 transcript (BDNF): ^#6.7 ± 1 ^; Expression of BDNF3 transcript (BDNF): 8 ± 3; Expression of BDNF4 transcript (BDNF): 9 ± 2; Expression of BDNF transcript (total BDNF) (BDNF): 2.4 ± 0.5; GPR54 activation (GPR54): activate GPR54 in vivo; PPI levels (C57B1/6 mice): improved the PPI levels; duration of the total immobility (naive mice): shorter; latency to the first immobility (naive mice): longer; PPI (SCID mice): restored the PPI of SCID mice back to the normal level; PPI (naive C57B1/6 mice; 100 μl of 1000 μM, small group, data not shown, vs PBS): no improvement was detected; PPI (naive C57B1/6 mice; female C57B1/6 mice, single dose 100 μl of 100 μM): significantly increased the PPI; PPI 24 hours after administration (ANOVA of percent PPI) (naive C57B1/6 mice; male mice, 100 μl of 100 μM): no significant main effect of the treatment; duration of the effect on PPI (naive C57B1/6 mice; male mice, 100 μl of 100 μM): less than 24 hours; PPI after repeated injection (naive C57B1/6 mice; male mice, repeated injection 24 hours after the first): induced the elevation of the PPI again; PPI after repeated injection (naive C57B1/6 mice; male mice, repeated injection 7 days after the first): induced the elevation of the PPI again; PPI at adulthood (naive C57B1/6 mice; naive animals, single injection at adolescence, vs PBS): no differences between the Kp-10 and the PBS treated mice; PPI (naive C57B1/6 mice; naive male mice, i.p. 100 μl of 1 μM, vs PBS): improved PPI but the improvement was not statistically significant; PPI (naive C57B1/6 mice; naive male mice, i.p. 100 μl of 10 μM, vs PBS): significantly increased PPI; PPI (naive C57B1/6 mice; naive male mice, i.p. 100 μl of 100 μM, vs PBS): significantly increased PPI
